Reference: article PMC8941859, “The FDA-Approved Drug Cobicistat Synergizes with Remdesivir To Inhibit SARS-CoV-2 Replication In Vitro and Decreases Viral Titers and Disease Progression in Syrian Hamsters” (mBio, 2022)
pEC50, pIC50: −log10 of the molar value. Where “and” joins values, the source holds several entries; their conditions need not be identical. Equal values may be shown once. Read-outs that look alike come from different tables or passages of the source.

Tests used:
3CLpro = 3CLpro (Severe acute respiratory syndrome coronavirus 2, UniProt P0DTD1); experiment: 3CLpro fluorescence resonance energy transfer (FRET) assay; format: biochemical, SARS-CoV-2; conditions: for FRET-determined EC50 (3CLpro): normalized to untreated control, nonlinear regression
Procedure: The activity of 3CLpro was measured by FRET assay (BPS Bioscience, San Diego, CA, USA) according to the manufacturer’s instructions and as previously described ([34]). […] Wells without drugs or without 3CLpro were used as positive control of 3CLpro activity and blank control, respectively. After a 30-min incubation, the 3CLpro substrate was added to each well and the plate was stored for 4 h in the dark. The fluorescence signal was acquired on an Infinite 200 PRO (Tecan, Männedorf, Switzerland) using an excitation wavelength of 360 nm and a detection wavelength of 460 nm. Relative 3CLpro was expressed as percentage of the positive control after subtraction of the blank.

SARS-CoV-2 [1] = experiment: microbe, parasite or virus in culture; format: cell-based
in vitro = format: cell-based; conditions: human; African green monkey
Procedure: Cell viability was evaluated by the MTT [3-(4,5-dimethylthiazol-2-yl)-2,5-diphenyl tetrazolium bromide] assay and by crystal violet staining as previously described ([76], [77]). Briefly, the MTT assay was conducted using the CellTiter 96 nonradioactive cell proliferation assay (MTT) (Promega; Madison, WI, USA). Cells were plated in a 96‐well plate at a concentration of 3 × 10^6 cells/mL in 100 μL of medium. The MTT solution (15 μL) was added to each well, and after 2 to 4 h, the reaction was stopped by the addition of 100 μL of 10% SDS. Absorbance values were acquired using an Infinite 200 PRO (Tecan, Männedorf, Switzerland) multimode plate reader at a 570-nm wavelength.
Data normality assumptions were tested by D’Agostino and Pearson normality test (for n > 3). Multiple-group comparisons were conducted by nonparametric Kruskal-Wallis test, followed by Dunn’s posttest, or by one-way or two-way analysis of variance (ANOVA) followed by Holm-Sidak or Dunnett posttests, respectively. Half-maximal inhibitory (IC50), effective (EC50), and cytotoxic (CC50) concentrations of the compounds were estimated by nonlinear regression after data normalization. […] Data analysis was conducted using GraphPad Prism v6 (GraphPad Software, San Diego, CA, USA). Synergy scores were calculated with the SynergyFinder web tool ([79]) using the Zero Interaction Potency (ZIP) model ([80]).

[2] = target: spike protein and human ACE2 (Severe acute respiratory syndrome coronavirus 2, UniProt P0DTC2); experiment: cell-based; design: species or system SARS-CoV-2; human; conditions: 1 h preincubation, luciferase after 24 h; read-out: IC50 of S-glycoprotein-mediated cell fusion
[3] = test system: Vero E6 cells transfected with the SARS-CoV-2 S-protein; experiment: Syncytium formation assay; format: cell-based, African green monkey; conditions: 1, 5, 10 μM; 24 h posttransfection
SARS-CoV-2 [4] = experiment: Replication-competent virus in supernatant (plaque assay); format: cell-based; conditions: Vero E6 cells, MOI 0.05, 2.5-10 μM, 24 h postinfection
SARS-CoV-2 [5] = format: cell-based; conditions: 5 to 10 μM; MTT and crystal violet; Calu-3, T84, Vero E6
SARS-CoV-2 [6] = experiment: SARS-CoV-2-infected Syrian hamsters

Structure (SMILES)	FRET-determined EC50 (3CLpro)	Alveolar alterations: Alveolar edema (SARS-CoV-2 [6]; Day 3, single animal)	Alveolar alterations: Epithelial necrosis (SARS-CoV-2 [6]; Day 3, single animal)	Alveolar alterations: Type II hyperplasia (SARS-CoV-2 [6]; Day 3, single animal)	Pneumonia: Consolidated lung area (%) (SARS-CoV-2 [6]; Day 3, single animal)	Pneumonia: Inflammation score (SARS-CoV-2 [6]; Day 3, single animal)	Pneumonia: Lung area affected (%) (SARS-CoV-2 [6]; Day 3, single animal)	Vascular alterations: Endothelialitis (SARS-CoV-2 [6]; Day 3, single animal)	Vascular alterations: Perivascular edema (SARS-CoV-2 [6]; Day 3, single animal)	Vascular alterations: Perivascular lymphocytes (SARS-CoV-2 [6]; Day 3, single animal)	Alveolar alterations: Alveolar edema (SARS-CoV-2 [6]; Day 5, single animal)	Alveolar alterations: Epithelial necrosis (SARS-CoV-2 [6]; Day 5, single animal)	Alveolar alterations: Type II hyperplasia (SARS-CoV-2 [6]; Day 5, single animal)	Pneumonia: Consolidated lung area (%) (SARS-CoV-2 [6]; Day 5, single animal)	Pneumonia: Inflammation score (SARS-CoV-2 [6]; Day 5, single animal)	Pneumonia: Lung area affected (%) (SARS-CoV-2 [6]; Day 5, single animal)	Vascular alterations: Endothelialitis (SARS-CoV-2 [6]; Day 5, single animal)	Vascular alterations: Perivascular edema (SARS-CoV-2 [6]; Day 5, single animal)	Vascular alterations: Perivascular lymphocytes (SARS-CoV-2 [6]; Day 5, single animal)	pEC50 (3CLpro)	also measured
CC(C)c1nc(CN(C)C(=O)N[C@@H](CCN2CCOCC2)C(=O)N[C@H](CC[C@H](Cc2ccccc2)NC(=O)OCc2cncs2)Cc2ccccc2)cs1 [Cobicistat]	Could not be calculated	2 and 0	1 and 0 and (1)	1–2 and 0	20% and 0% and <5%	2–3 and (1) and 1	30% and <5% and 5–10%	2–3 and (1) and 1–2	1–2 and 0	1–2 and 0	3 and 2 and 2–3	2 and 1	2–3 and 3 and 1–2	50% and 30% and 35%	3 and 2–3	80% and 70% and 50%	2–3 and 3	2–3 and 2	2 and 1	–	Effect on catalytic activity of 3CLpro (3CLpro; FRET assay, Fig. S3A): inactive; Effect on intracellular and supernatant viral RNA (SARS-CoV-2 [1]; Calu-3 cells, time course, low-micromolar concentrations, qPCR N1 and N2 primers): dose-dependent inhibitory effect; pIC50 (SARS-CoV-2 [1]; Severe acute respiratory syndrome coronavirus 2, Calu-3, Vero E6 and T84 cells, MOI 0.05 and 0.5, treated 2 h postinfection, 48 h, read-out: IC50 (viral RNA release in supernatant), range): 5.06 to 6.24; CC50 at 48 h (in vitro): 38.7 to 53 µM; pIC50 [2]: 5.42; Syncytium formation [3]: decreased syncytium formation; Levels of replication-competent virus in supernatant (SARS-CoV-2 [4]): able to decrease the levels of replication-competent virus; Viability of infected cells (SARS-CoV-2 [5]): partially rescue viability of infected cells; Tolerability of dosing regimen in vivo (SARS-CoV-2 [6]; 50 mg/kg): well tolerated; Infectious progeny in the lung (PFU, plaque assay) (SARS-CoV-2 [6]; cobicistat 50 mg/kg oral daily, remdesivir 15 mg/kg i.p. daily, days 3 and 5 p.i.): significant decrease
CC(C)CN(C[C@@H](O)[C@H](Cc1ccccc1)NC(=O)O[C@H]1CO[C@H]2OCC[C@H]21)S(=O)(=O)c1ccc(N)cc1 [Darunavir]	Could not be calculated	–	–	–	–	–	–	–	–	–	–	–	–	–	–	–	–	–	–	–	–
Cc1cccc(C)c1OCC(=O)N[C@@H](Cc1ccccc1)[C@@H](O)C[C@H](Cc1ccccc1)NC(=O)[C@H](C(C)C)N1CCCNC1=O [Lopinavir]	–	–	–	–	–	–	–	–	–	–	–	–	–	–	–	–	–	–	–	3.66	–
Cc1c(O)cccc1C(=O)N[C@@H](CSc1ccccc1)[C@H](O)CN1C[C@H]2CCCC[C@H]2C[C@H]1C(=O)NC(C)(C)C [Nelfinavir]	Could not be calculated	–	–	–	–	–	–	–	–	–	–	–	–	–	–	–	–	–	–	–	–
CCC(CC)COC(=O)[C@H](C)N[P@](=O)(OC[C@H]1O[C@@](C#N)(c2ccc3c(N)ncnn23)[C@H](O)[C@@H]1O)Oc1ccccc1 [Remdesivir, remdesivir]	–	0	(1) and 0	0	0%	(1)	5% and <5%	0	(1) and 0	0 and (1)	1 and 1–2 and 2	2	1 and 1–2	25% and 35% and 30%	2–3	40% and 70%	2–3 and 2	(1) and 1 and 2	2 and 1–2	–	pIC50 (SARS-CoV-2 [1]; Severe acute respiratory syndrome coronavirus 2, Vero C1008, Vero E6 cells, MOI 0.5, 48 h, read-out: IC50 (viral RNA expression in supernatant)): 6.13; pIC50 (SARS-CoV-2 [1]; Severe acute respiratory syndrome coronavirus 2, T84 cells, MOI 0.5, 48 h, read-out: IC50 (viral RNA expression in supernatant)): 6.46
CCC[C@@]1(CCc2ccccc2)CC(O)=C([C@H](CC)c2cccc(NS(=O)(=O)c3ccc(C(F)(F)F)cn3)c2)C(=O)O1 [Tipranavir]	–	–	–	–	–	–	–	–	–	–	–	–	–	–	–	–	–	–	–	4.33	–
